The values below come from patent publication US9795134B2, “Growth enhancement of plant” (RHODIA OPERATIONS, priority 2012, dated 2017).

The assay concerns Wheat seeds. Nature of the assay: Germination test on wheat seeds with pesticide (tebuconazol) treatment. The format is in vivo. Particulars: Guar 1/seed 0.2%, tebuconazol/seed 0.1%, 25 ml water each 2 days, 25° C. The source says: Germination rate means the number of plant emerging out of soil in comparison with the number of all introduced in the soil. Height is the medium height of all plants in a set. Spraying an aqueous solution comprising 0.4 wt % of Guar 1 and […] additives on the surface of Wheat seeds, to obtain a weight ratio Guar 1/seed of 0.2% and tebuconazol/seed of 0.1%. 900 g of soil in each pot are used; this soil coming from […] province and belongs to […] soil. The germination test is carried out under watering conditions of 25 ml water each 2 days, with a temperature is 25° C.

For the compound `CC(C)(C)C(O)(CCc1ccc(Cl)cc1)Cn1cncn1` (centres unmarked) [tebucanozol, tebuconazol], the “Germination rate (36 days)” value worked out at 47% and the “Height (36 days)” value is recorded as 4.6 cm.
